Data set [1] has as its system Aspergillus fumigatus strain IFM0063. Nature of the data set: Minimum Inhibitory Concentration (MIC), agar plate dilution method. The class given is cell-based. Particulars: Sabouraud's dextrose agar, 30°C for 2 days, visual growth. How it is done: (§1) MIC measurements were conducted by an agar plate dilution method. Stated specifically, Aspergillus fumigatus strains IFM0063 and IFM4942 were cultured on a potato dextrose agar medium at 27°C for 10 days, and the growing conidia were suspended in a sterile physiological saline containing 0.05% Tween 80 to give a concentration of 10⁸ - 10⁹ conidia per ml. The suspension was conditioned in a Sabouraud's dextrose broth medium at a concentration of 10⁵ spores per ml and a 5-µl aliquot of the culture was inoculated into a drug-containing Sabouraud's dextrose agar medium and cultured at 30°C for 2 days. The growth of fungi was observed visually and the minimum concentration of the test drug that could inhibit the fungal growth was designated as its MIC.

Data set [2] has as its system Aspergillus fumigatus strain IFM4942. The description is as above. The format is cell-based. The following applies: Sabouraud's dextrose agar, 30°C for 2 days, visual growth. How it is done:
as §1

Data set [3] relates to Candida albicans strain IFM40009. Nature of the data set: Treatment of infection, protocol 3: cyclophosphamide-immunosuppressed mice infected with Candida albicans, oral treatment, survival. The format is in vivo. Particulars: ICR male mice immunosuppressed with cyclophosphamide 100 mg/kg i.p. twice, i.v. infection 1 × 10⁶ cells, oral once after an hour of infection, survival at 7th day, read-out: ED₅₀. The procedure:
Experimentally prepared immunosuppressed mice were infected with Candida albicans; they were then administered selected compounds of the invention orally and the therapeutic effect of the compounds was measured.
Stated specifically, ICR male mice (4-wk old) in groups each consisting of 10 animals were administered cyclophosphamide intraperitoneally at a dose of 100 mg/kg; four days later, the mice were similarly administered cyclophosphamide intraperitoneally to be rendered experimentally immunosuppressed. Simultaneously with the second shot of cyclophosphamide, Candida albicans strain IFM40009 was administered to the tail vein of each animal at a concentration of 1 × 10⁶ cells per animal to induce infection. Each test compound was administered orally to the mice once after an hour of infection.
The number of mice that survived at the 7th day of the infection was counted (the day of infection was day "zero") and the ED₅₀ of each test compound was calculated by the Litchfield-Wilcoxon method to estimate its therapeutic effect.

Data set [4] relates to Aspergillus fumigatus strain IFM41944. The data set can be described thus: Treatment of infection, protocol 1: mice infected with Aspergillus fumigatus, oral treatment, survival. The class given is in vivo. The following applies: for ED50: Aspergillus fumigatus, IFM41944, ICR male mice, i.v. infection 1 × 10⁷ conidia, oral one hour after infection and following four days once a day, survival at 7th day, Litchfield-Wilcoxon, read-out: ED₅₀. How it is done: (§2) Mice infected with Aspergillus fumigatus were administered selected compounds of the invention orally and their therapeutic effect was measured. Stated specifically, ICR male mice (4-wk old) in groups each consisting of 10 animals were injected with Aspergillus fumigatus strain IFM41944 by injecting it into the tail vein at a concentration of 1 × 10⁷ conidia per animal. Each test compound was administered orally to the mice one hour after the infection and for the following four continuous days on a once-a-day basis. The number of mice that survived at the 7th day of the infection was counted (the day of infection was day "zero") and the ED₅₀ of each test compound was calculated by the Litchfield-Wilcoxon method to estimate its therapeutic effect.

Data set [5] is described as follows: Toxicity test, repeated oral administration to mice. The format is in vivo. Particulars: 4-wk old mice, 5 consecutive days, 100 mg/kg. The procedure: The four selected compounds of the invention (those prepared in Examples 1, 2, 9 and 30) were administered orally to 4-wk old mice for 5 consecutive days at a dose of 100 mg/kg.
Data set [6] deals with Candida albicans strain IFM40009. The data set can be described thus: Treatment of infection, protocol 2: mice infected with Candida albicans, oral treatment, survival. The class given is in vivo. The following applies: ICR male mice, i.v. infection 1 × 10⁶ cells, oral once after an hour of infection, survival at 7th day, Litchfield-Wilcoxon. How it is done: as §2, with “Candida albicans” for “Aspergillus fumigatus”, “IFM40009” for “IFM41944”, “10⁶ cells” for “10⁷ conidia”, “once after an” for “one”, “of infection.” for “after the infection and for the following four continuous days on a once-a-day basis.”

The mark [7] stands for this setting: Aspergillus fumigatus, IFM0063, 48 h, read-out: MIC.
Where [8] appears, read: Aspergillus fumigatus, IFM4942, 48 h, read-out: MIC.

Data on 29 molecules can be found in patent publication EP0670315A1, “Triazole oxime derivatives having antimycotic acitivity” (priority 1994, dated 1995).

In brackets after ≈: the same amount, converted by molar mass. Read-outs that look alike come from different tables or passages of the source.

The term MIC denotes the smallest concentration in the dilution series that meets the test's criterion for growth inhibition.

Regarding `COCON=C(C(C)C)C1(C(O)(Cn2cncn2)c2ccc(F)cc2F)CC1` (single isomer, unassigned; (-)) [Example 4, (-)-1-[1-[1-(2,4-difluorophenyl)-1-hydroxy-2-(1H-1,2,4-triazol-1-yl)ethyl]cyclopropyl]-2-methyl-1-propanone O-(methoxymethyl)oxime], the MIC in data set [1] and in data set [2] was 12.5 µg/mL (≈ 31.7 µM) throughout.
Regarding `CON=C(C(C)C)C1(C(O)(Cn2cncn2)c2ccc(F)cc2F)CC1` (single isomer, unassigned; (-)) [Example 6, (-)-1-[1-[1-(2,4-difluorophenyl)-1-hydroxy-2-(1H-1,2,4-triazol-1-yl)ethyl]cyclopropyl]-2-methyl-1-propanone O-methyl oxime], the MIC in data set [1] (setting [7]) and in data set [2] (setting [8]) was 3.13 µg/mL (≈ 8.59 µM) throughout.
Take `COCON=C(C(C)C)C1(C(O)(Cn2cncn2)c2ccc(F)cc2F)CC1` (stereo not shown) [Example 1, 1-[1-[1-(2,4-difluorophenyl)-1-hydroxy-2-(1H-1,2,4-triazol-1-yl)ethyl]cyclopropyl]-2-methyl-1-propanone O-(methoxymethyl)oxime]: the MIC in data set [1] (setting [7]) and in data set [2] (setting [8]) was 25 µg/mL (≈ 63.4 µM) each time. Moreover, the ED50 in data set [3] is 4.9 mg/kg; in data set [4], 30.3 mg/kg. Moreover, in data set [5], the evidence for abnormality result is “no evidence for abnormality”.
`CCCC(=NOCOC)C1(C(O)(Cn2cncn2)c2ccc(F)cc2F)CC1` (stereo not shown) [Example 8]: the MIC turned out to be 12.5 µg/mL (≈ 31.7 µM) in data set [1] (setting [7]) and 25 µg/mL (≈ 63.4 µM) in data set [2] (setting [8]). Besides, the ED50 in data set [4] was determined as 27.7 mg/kg.
Regarding `CCCC(=NOC)C1(C(O)(Cn2cncn2)c2ccc(F)cc2F)CC1` (stereo not shown) [Example 9], the MIC in data set [1] (setting [7]) and in data set [2] (setting [8]) was 6.25 µg/mL (≈ 17.2 µM) in each case. For the same molecule, the ED50 in data set [4] worked out at 20.2 mg/kg. In addition, in data set [5], the evidence for abnormality entry is “no evidence for abnormality”.
Turning to `CCC(=NOCOC)C1(C(O)(Cn2cncn2)c2ccc(F)cc2F)CC1` (stereo not shown) [Example 10], the MIC is 6.25 µg/mL (≈ 16.4 µM) in data set [1] (setting [7]) and 12.5 µg/mL (≈ 32.9 µM) in data set [2] (setting [8]).
Taken in the same sequence, the figures for `CCC(=NOC)C1(C(O)(Cn2cncn2)c2ccc(F)cc2F)CC1` (stereo not shown) [Example 11] were 3.13 µg/mL (≈ 8.93 µM) and 3.13 µg/mL (≈ 8.93 µM).
With `COCON=C(C1CC1)C1(C(O)(Cn2cncn2)c2ccc(F)cc2F)CC1` (stereo not shown) [Example 15], the MIC in data set [1] (setting [7]) and in data set [2] (setting [8]) was 12.5 µg/mL (≈ 31.9 µM) throughout.
As for `CON=C(C)C(C)(C)C(O)(Cn1cncn1)c1ccc(F)cc1F` (stereo not shown) [Example 21], the minimal inhibitory concentration (MIC) in data set [1] (setting [7]) and in data set [2] (setting [8]) was 3.13 µg/mL (≈ 9.25 µM) in each case.
Take `CCC(=NOC)C(C)(C)C(O)(Cn1cncn1)c1ccc(F)cc1F` (stereo not shown) [Example 22]: the minimal inhibitory concentration (MIC) in data set [1] (setting [7]) turned out to be 1.56 µg/mL (≈ 4.43 µM); in data set [2] (setting [8]), 3.13 µg/mL (≈ 8.88 µM).
As for `CC(=NO)C(C)(C)C(O)(Cn1cncn1)c1ccc(F)cc1F` (stereo not shown) [Example 29], the MIC in data set [1] (setting [7]) stood at 6.25 µg/mL (≈ 19.3 µM); in data set [2] (setting [8]), 12.5 µg/mL (≈ 38.5 µM).
Taken in the same sequence, the figures for `CCON=C(C(C)C)C1(C(O)(Cn2cncn2)c2ccc(F)cc2F)CC1` (stereo not shown) [Example 38] were 12.5 µg/mL (≈ 33 µM) and 12.5 µg/mL (≈ 33 µM).
Taken in the same sequence, the figures for `CC(C)C(=NOCC#N)C1(C(O)(Cn2cncn2)c2ccc(F)cc2F)CC1` (stereo not shown) [Example 40] were 12.5 µg/mL (≈ 32.1 µM) and 12.5 µg/mL (≈ 32.1 µM).
Taken in the same sequence, the figures for `CSCON=C(C(C)C)C1(C(O)(Cn2cncn2)c2ccc(F)cc2F)CC1` (stereo not shown) [Example 41] were 12.5 µg/mL (≈ 30.5 µM) and 12.5 µg/mL (≈ 30.5 µM).
As to `CCCON=C(C(C)C)C1(C(O)(Cn2cncn2)c2ccc(F)cc2F)CC1` (stereo not shown) [Example 42], the MIC in data set [1] (setting [7]) and in data set [2] (setting [8]) was 25 µg/mL (≈ 63.7 µM) each time.
Turning to `CC(C)C(=NOCCBr)C1(C(O)(Cn2cncn2)c2ccc(F)cc2F)CC1` (stereo not shown) [Example 44, 1-[1-[1-(2,4-difluorophenyl)-1-hydroxy-2-(1H-1,2,4-triazol-1-yl)ethyl]cyclopropyl]-2-methyl-1-propanone O-(2-bromoethyl)oxime], the minimum inhibitory concentration (MIC) in data set [1] (setting [7]) and in data set [2] (setting [8]) was 12.5 µg/mL (≈ 27.3 µM) in each case. Also, the ED50 in data set [6] came out at 14.6 mg/kg.
Consider `CCCC(=NOCn1cncn1)C1(C(O)(Cn2cncn2)c2ccc(F)cc2F)CC1` (stereo not shown) [Example 46], for which the ED50 in data set [6] came to 15.7 mg/kg.
Consider `C#CCON=C(CC)C1(C(O)(Cn2cncn2)c2ccc(F)cc2F)CC1` (stereo not shown) [Example 51], for which the MIC in data set [1] (setting [7]) and in data set [2] (setting [8]) was 3.13 µg/mL (≈ 8.36 µM) each time. This molecule also registered an ED50 in data set [6] of 11.3 mg/kg.
With `CCC(=NOCSC)C1(C(O)(Cn2cncn2)c2ccc(F)cc2F)CC1` (stereo not shown) [Example 53], the results for the MIC in data set [1] (setting [7]) and in data set [2] (setting [8]) were 1.56 µg/mL (≈ 3.93 µM) and 3.13 µg/mL (≈ 7.89 µM), respectively. Further, the ED50 in data set [6] amounted to 13.5 mg/kg.
For `CCC(=NOCCBr)C1(C(O)(Cn2cncn2)c2ccc(F)cc2F)CC1` (stereo not shown) [Example 55], the MIC in data set [1] (setting [7]) and in data set [2] (setting [8]) was 3.13 µg/mL (≈ 7.06 µM) throughout. Moreover, the ED50 in data set [6] was determined as 14.7 mg/kg.
For `CCCCON=C(CC)C1(C(O)(Cn2cncn2)c2ccc(F)cc2F)CC1` (stereo not shown) [Example 56], the MIC in data set [1] (setting [7]) and in data set [2] (setting [8]) was 6.25 µg/mL (≈ 15.9 µM) in each case. Besides, the ED50 in data set [6] turned out to be 14.7 mg/kg.
`CCC(=NOCn1cncn1)C1(C(O)(Cn2cncn2)c2ccc(F)cc2F)CC1` (stereo not shown) [Example 58] gave an ED50 in data set [6] of 13.2 mg/kg.
For `CCC(=NOCc1ccncc1)C1(C(O)(Cn2cncn2)c2ccc(F)cc2F)CC1` (stereo not shown) [Example 59], the minimal inhibitory concentration (MIC) in data set [1] (setting [7]) and in data set [2] (setting [8]) was 6.25 µg/mL (≈ 14.6 µM) each time. This molecule also showed an ED50 in data set [6] of 10.7 mg/kg.
Turning to `COC(OC)ON=C(C(C)C)C1(C(O)(Cn2cncn2)c2ccc(F)cc2F)CC1` (stereo not shown) [Example 72, 1-[1-[1-(2,4-difluorophenyl)-1-hydroxy-2-(1H-1,2,4-triazol-1-yl)ethyl]cyclopropyl]-2-methyl-1-propanone O-(dimethoxymethyl)oxime], the ED50 in data set [6] stood at 13.5 mg/kg.
In data set [6], `COC(C)(OC)ON=C(C(C)C)C1(C(O)(Cn2cncn2)c2ccc(F)cc2F)CC1` (stereo not shown) [Example 73, 1-[1-[1-(2,4-difluorophenyl)-1-hydroxy-2-(1H-1,2,4-triazol-1-yl)ethyl]cyclopropyl]-2-methyl-1-propanone O-(1-dimethoxyethyl)oxime] had an ED50 of 5.8 mg/kg.
The same measure, in the same setting: to `COC(C)(C)ON=C(C(C)C)C1(C(O)(Cn2cncn2)c2ccc(F)cc2F)CC1` (stereo not shown) [Example 74, 1-[1-[1-(2,4-difluorophenyl)-1-hydroxy-2-(1H-1,2,4-triazol-1-yl)ethyl]cyclopropyl]-2-methyl-1-propanone O-(1-methoxy-1-methylethyl)oxime] belongs 8.9 mg/kg; to `COC(C)ON=C(C(C)C)C1(C(O)(Cn2cncn2)c2ccc(F)cc2F)CC1` (stereo not shown) [Example 75, 1-[1-[1-(2,4-difluorophenyl)-1-hydroxy-2-(1H-1,2,4-triazol-1-yl)ethyl]cyclopropyl]-2-methyl-1-propanone O-(1-methoxyethyl)oxime], 8.6 mg/kg.
For the molecule `OC(Cn1cncn1)(Cn1cncn1)c1ccc(F)cc1F` [Fluconazole, fluconazole, reference compound], the MIC in data set [1] (setting [7]) and in data set [2] (setting [8]) was more than 100 µg/mL throughout. Also, the ED50 is 54.4 mg/kg in data set [3], 11.7 mg/kg in data set [6] and more than 100 mg/kg in data set [4]. Moreover, the “antimycotic action in Aspergillus fumigatus infected animal models” value in data set [4] (doses up to 100 mg/kg, oral, mice) is “did not show any antimycotic action”.
As for `CCC(C)n1ncn(-c2ccc(N3CCN(c4ccc(OCC5COC(Cn6cncn6)(c6ccc(Cl)cc6Cl)O5)cc4)CC3)cc2)c1=O` (stereo not shown) [Itraconazole, itraconazole, reference compound], the ED50 in data set [4] is more than 100 mg/kg.
